Data as given in publication PMC3959874 (European journal of dermatology : EJD, 2013).

Tests used:
[1] = biological target: Transporter, Serotonin (5-Hyd roxytryptamine) (SERT) (Homo sapiens, UniProt P31645); type: binding; settings: 10 μM; 25 °C, 60 min
Dopamine D1 = Dopamine D1 (Homo sapiens, UniProt P21728); assay: Radioligand binding assay; settings: 10 μM; 37 °C, 120 min
Opiate K (OP2, KOP) = Opiate K (OP2, KOP) (Homo sapiens, UniProt P41145); assay: Radioligand binding assay; settings: 10 μM; 25 °C, 60 min
Opiate K (OP2, KOP), sequence (P41145 whole entry): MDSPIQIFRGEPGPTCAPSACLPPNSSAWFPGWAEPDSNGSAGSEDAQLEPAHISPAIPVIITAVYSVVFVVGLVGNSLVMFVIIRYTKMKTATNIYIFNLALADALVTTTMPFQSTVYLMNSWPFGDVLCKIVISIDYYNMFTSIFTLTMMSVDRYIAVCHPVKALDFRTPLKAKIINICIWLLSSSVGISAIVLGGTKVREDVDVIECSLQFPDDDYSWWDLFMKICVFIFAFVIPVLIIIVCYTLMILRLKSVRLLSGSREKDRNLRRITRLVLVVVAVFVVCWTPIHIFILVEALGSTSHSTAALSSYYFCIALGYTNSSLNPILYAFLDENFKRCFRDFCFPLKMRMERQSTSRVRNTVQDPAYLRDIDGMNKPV

[2] = biological target: Nicotinic Acetylcholine a1, Bungarotoxin (Homo sapiens, UniProt P02708+P07510+Q07001); assay: Radioligand binding assay; settings: 10 μM; 25 °C, 120 min
Phorbol Ester = assay: Radioligand binding assay; design: species or system mouse; settings: 10 μM; 25 °C, 60 min
Interleukin IL-1 = Interleukin IL-1 (Mus musculus, UniProt P13504); assay: Radioligand binding assay; settings: 10 μM; 37 °C, 120 min
[3] = Serum drug concentration after topical skin application; settings: mice, TMX-202 from TMX-202 gel, IMQ from Aldara
[4] = system: Calcium Channel L-Type, Dihydropyridine; assay: Radioligand binding assay; design: species or system rat; settings: 10 μM; 25 °C, 90 min
Glutamate, Kainate = assay: Radioligand binding assay; design: species or system rat; settings: 10 μM; 4 °C, 60 min
Endothelin ETA = Endothelin ETA (Homo sapiens, UniProt P25101); assay: Radioligand binding assay; settings: 10 μM; 37 °C, 120 min
CYP450, 2C9 = CYP450, 2C9 (Homo sapiens, UniProt P11712); assay: Cytochrome P450 enzyme assay; type: in vitro ADME; settings: 10 μM; 37 °C, 45 min
Muscarinic M3 = Muscarinic M3 (Homo sapiens, UniProt P20309); type: binding; settings: 10 μM; 25 °C, 120 min
[5] = biological target: Epidermal Growth Factor (EG F) (Homo sapiens, UniProt P00533); assay: Radioligand binding assay; settings: 10 μM; 25 °C, 60 min
GABAA, Muscimol, Central = assay: Radioligand binding assay; design: species or system rat; settings: 10 μM; 4 °C, 10 min
CYP450, 2D6 = CYP450, 2D6 (Homo sapiens, UniProt P10635); assay: Cytochrome P450 enzyme assay; type: in vitro ADME; settings: 10 μM; 37 °C, 45 min
Purinergic P2x = assay: Radioligand binding assay; design: species or system rabbit; settings: 10 μM; 25 °C, 30 min
[6] = biological target: Serotonin (5-Hydroxytryptam ine) 5-HT1A (Homo sapiens, UniProt P08908); assay: Radioligand binding assay; settings: 10 μM; 25 °C, 60 min
Serotonin (5-Hydroxytryptam ine) 5-HT1A, sequence (P08908 whole entry): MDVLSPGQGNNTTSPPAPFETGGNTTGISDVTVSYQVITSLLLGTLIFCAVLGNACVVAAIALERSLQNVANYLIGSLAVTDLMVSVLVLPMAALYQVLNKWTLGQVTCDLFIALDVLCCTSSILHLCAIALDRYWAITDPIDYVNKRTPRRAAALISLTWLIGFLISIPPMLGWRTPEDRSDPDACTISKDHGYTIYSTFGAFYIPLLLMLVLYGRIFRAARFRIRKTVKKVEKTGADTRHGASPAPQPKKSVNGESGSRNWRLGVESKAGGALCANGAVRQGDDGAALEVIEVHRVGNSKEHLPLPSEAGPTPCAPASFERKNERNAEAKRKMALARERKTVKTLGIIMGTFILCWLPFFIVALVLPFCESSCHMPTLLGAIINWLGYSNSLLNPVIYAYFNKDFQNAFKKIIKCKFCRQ

[7] = system: Sodium Channel, Site 2 289593; assay: Radioligand binding assay; design: species or system rat; settings: 10 μM; 37 °C, 60 min
Calcium Channel N-Type = Calcium Channel N-Type (Rattus norvegicus, UniProt Q02294); assay: Radioligand binding assay; settings: 10 μM; 4 °C, 30 min
human whole blood = assay: Cytokine induction in human whole blood assay; type: cell-based; settings: three donors (figures 1D–F)
TLR7 = assay: In vitro TLR7-dependent cytokine induction, overall potency comparison; type: cell-based
human PBMC = assay: IFN-γ secretion by stimulated PBMC; type: cell-based
Neuropeptide Y Y2 = Neuropeptide Y Y2 (Homo sapiens, UniProt P49146); assay: Radioligand binding assay; settings: 10 μM; 37 °C, 120 min
Neuropeptide Y Y2, sequence (P49146 whole entry): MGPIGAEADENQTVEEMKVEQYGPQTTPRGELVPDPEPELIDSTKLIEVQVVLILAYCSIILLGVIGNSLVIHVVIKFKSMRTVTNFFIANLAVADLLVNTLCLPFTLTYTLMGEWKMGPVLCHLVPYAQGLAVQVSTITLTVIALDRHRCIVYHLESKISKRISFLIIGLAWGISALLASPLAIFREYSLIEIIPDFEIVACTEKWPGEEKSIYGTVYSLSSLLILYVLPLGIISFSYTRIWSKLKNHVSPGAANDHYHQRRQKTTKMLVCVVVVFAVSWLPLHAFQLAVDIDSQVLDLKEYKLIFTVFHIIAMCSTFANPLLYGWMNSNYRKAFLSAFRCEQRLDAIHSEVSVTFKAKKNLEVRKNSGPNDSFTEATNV

Potassium Channel hERG = Potassium Channel hERG (Homo sapiens, UniProt Q12809); assay: Radioligand binding assay; settings: 10 μM; 25 °C, 60 min
Potassium Channel hERG, sequence (Q12809 whole entry): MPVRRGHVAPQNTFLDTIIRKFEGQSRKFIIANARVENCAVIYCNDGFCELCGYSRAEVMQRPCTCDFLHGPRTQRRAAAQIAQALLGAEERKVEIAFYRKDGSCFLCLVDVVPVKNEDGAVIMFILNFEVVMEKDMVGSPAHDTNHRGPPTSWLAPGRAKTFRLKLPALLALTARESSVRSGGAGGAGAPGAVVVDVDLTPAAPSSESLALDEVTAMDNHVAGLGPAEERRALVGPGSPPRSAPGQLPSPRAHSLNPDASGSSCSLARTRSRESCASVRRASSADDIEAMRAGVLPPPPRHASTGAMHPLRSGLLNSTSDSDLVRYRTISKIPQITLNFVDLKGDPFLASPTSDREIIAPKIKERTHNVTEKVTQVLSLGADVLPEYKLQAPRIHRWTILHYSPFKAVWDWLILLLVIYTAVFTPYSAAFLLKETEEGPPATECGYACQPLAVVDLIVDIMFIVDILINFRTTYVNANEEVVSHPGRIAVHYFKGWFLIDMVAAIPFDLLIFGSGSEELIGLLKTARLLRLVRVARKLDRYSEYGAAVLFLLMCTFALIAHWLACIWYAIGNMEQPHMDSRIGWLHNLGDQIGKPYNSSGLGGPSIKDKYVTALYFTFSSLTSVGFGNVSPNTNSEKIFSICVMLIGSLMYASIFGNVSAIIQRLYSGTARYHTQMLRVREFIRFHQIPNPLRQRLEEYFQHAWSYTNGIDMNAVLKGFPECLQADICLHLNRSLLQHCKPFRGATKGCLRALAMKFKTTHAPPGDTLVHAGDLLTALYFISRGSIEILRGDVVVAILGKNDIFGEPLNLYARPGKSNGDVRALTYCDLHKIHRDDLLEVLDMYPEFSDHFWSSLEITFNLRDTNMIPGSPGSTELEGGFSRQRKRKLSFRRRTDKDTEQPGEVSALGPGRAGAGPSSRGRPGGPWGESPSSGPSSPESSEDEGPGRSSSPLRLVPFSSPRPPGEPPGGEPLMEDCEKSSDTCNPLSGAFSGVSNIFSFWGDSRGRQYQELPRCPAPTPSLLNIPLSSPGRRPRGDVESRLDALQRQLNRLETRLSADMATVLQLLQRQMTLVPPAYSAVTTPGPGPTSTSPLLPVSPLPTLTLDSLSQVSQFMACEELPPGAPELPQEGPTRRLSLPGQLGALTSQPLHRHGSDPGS

Opiate n (OP3, MOP) = Opiate n (OP3, MOP) (Homo sapiens, UniProt P35372); assay: Radioligand binding assay; settings: 10 μM; 25 °C, 60 min
Prostanoid EP4 = Prostanoid EP4 (Homo sapiens, UniProt P35408); assay: Radioligand binding assay; settings: 10 μM; 25 °C, 120 min
Bradykinin B2 = Bradykinin B2 (Homo sapiens, UniProt P30411); assay: Radioligand binding assay; settings: 10 μM; 25 °C, 60 min
Bradykinin B2, sequence (P30411 whole entry): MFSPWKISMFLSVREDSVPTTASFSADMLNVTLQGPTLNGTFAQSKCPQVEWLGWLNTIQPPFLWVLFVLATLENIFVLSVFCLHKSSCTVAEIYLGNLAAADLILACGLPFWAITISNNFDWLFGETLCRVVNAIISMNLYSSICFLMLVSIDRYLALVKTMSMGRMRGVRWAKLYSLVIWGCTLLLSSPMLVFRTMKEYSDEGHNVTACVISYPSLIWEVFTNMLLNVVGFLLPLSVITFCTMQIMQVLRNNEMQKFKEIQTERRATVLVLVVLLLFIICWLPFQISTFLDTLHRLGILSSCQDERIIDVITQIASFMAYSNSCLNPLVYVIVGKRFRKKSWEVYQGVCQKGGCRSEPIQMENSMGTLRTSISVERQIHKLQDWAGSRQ

[8] = system: Glutamate, NMDA, Phencyclidine; assay: Radioligand binding assay; design: species or system rat; settings: 10 μM; 25 °C, 45 min
CYP450, 2C19 = CYP450, 2C19 (Homo sapiens, UniProt P33261); assay: Cytochrome P450 enzyme assay; type: in vitro ADME; settings: 10 μM; 37 °C, 45 min
Adrenergic β1 = Adrenergic β1 (Homo sapiens, UniProt P08588); assay: Radioligand binding assay; settings: 10 μM; 25 °C, 120 min
Adrenergic β1, sequence (P08588 whole entry): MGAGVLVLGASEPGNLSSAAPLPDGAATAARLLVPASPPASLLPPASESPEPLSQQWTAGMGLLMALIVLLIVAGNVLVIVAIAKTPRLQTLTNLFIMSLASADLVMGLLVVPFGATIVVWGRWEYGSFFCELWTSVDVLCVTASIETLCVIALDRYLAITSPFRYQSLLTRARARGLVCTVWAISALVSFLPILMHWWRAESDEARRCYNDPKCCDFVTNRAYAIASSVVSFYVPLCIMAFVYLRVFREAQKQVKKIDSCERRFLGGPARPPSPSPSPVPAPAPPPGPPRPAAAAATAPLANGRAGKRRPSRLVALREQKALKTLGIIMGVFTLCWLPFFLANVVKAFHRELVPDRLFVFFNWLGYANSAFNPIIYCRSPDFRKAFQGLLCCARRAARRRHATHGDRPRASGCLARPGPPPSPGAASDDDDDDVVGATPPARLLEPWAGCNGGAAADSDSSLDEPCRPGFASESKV

Sigma al = Sigma al (Homo sapiens, UniProt Q99720); assay: Radioligand binding assay; settings: 10 μM; 37 °C, 240 min
Sigma al, sequence (Q99720 whole entry): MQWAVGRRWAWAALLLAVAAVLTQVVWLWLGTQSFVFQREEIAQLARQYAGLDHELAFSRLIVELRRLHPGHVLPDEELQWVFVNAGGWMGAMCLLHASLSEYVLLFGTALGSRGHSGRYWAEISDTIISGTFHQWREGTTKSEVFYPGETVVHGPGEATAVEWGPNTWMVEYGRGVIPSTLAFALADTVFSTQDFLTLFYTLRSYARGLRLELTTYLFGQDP

Imidazoline I2, Central = assay: Radioligand binding assay; design: species or system rat; settings: 10 μM; 25 °C, 30 min
[9] = biological target: Transporter, Norepinephrine (NET) (Homo sapiens, UniProt P23975); assay: Radioligand binding assay; settings: 10 μM; 4 °C, 180 min
Adenosine A3 = Adenosine A3 (Homo sapiens, UniProt P0DMS8); assay: Radioligand binding assay; settings: 10 μM; 25 °C, 60 min
Adenosine A3, sequence (P0DMS8 whole entry): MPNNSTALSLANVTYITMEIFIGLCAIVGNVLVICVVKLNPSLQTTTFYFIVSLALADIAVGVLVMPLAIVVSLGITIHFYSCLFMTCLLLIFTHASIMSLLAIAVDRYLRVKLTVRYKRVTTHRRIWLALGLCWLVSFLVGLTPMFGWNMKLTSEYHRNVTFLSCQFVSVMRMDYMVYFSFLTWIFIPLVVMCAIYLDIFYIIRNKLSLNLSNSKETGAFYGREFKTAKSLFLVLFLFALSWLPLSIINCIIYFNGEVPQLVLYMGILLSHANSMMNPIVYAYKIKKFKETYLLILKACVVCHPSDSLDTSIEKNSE

Dopamine D4.2 = Dopamine D4.2 (Homo sapiens, UniProt P21917, DEL265-296); assay: Radioligand binding assay; settings: 10 μM; 25 °C, 120 min
Cannabinoid CB1 = Cannabinoid CB1 (Homo sapiens, UniProt P21554); assay: Radioligand binding assay; settings: 10 μM; 37 °C, 90 min
Cannabinoid CB1, sequence (P21554 whole entry): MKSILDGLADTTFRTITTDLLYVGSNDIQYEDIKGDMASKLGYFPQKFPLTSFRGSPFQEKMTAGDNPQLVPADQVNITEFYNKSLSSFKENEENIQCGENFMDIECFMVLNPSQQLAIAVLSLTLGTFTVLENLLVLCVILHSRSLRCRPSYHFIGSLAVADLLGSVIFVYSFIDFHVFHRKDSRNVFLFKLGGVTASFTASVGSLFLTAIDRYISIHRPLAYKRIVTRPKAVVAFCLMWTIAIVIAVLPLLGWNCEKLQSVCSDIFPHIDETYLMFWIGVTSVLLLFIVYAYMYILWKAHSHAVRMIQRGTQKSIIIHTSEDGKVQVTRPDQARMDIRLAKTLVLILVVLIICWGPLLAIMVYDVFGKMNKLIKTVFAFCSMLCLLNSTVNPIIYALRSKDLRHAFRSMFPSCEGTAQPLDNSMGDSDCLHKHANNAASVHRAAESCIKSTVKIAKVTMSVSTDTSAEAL

Adrenergic a1D = Adrenergic a1D (Homo sapiens, UniProt P25100); assay: Radioligand binding assay; settings: 10 μM; 25 °C, 60 min
[10] = system: primary bone marrow derived dendritic cells (BMDC); assay: Cytokine induction; type: cell-based, mouse; settings: graded doses overnight, ELISA (figures 1B, C)
[11] = biological target: Serotonin (5-Hydroxytryptam ine) 5-HT3 (Homo sapiens, UniProt P46098); assay: Radioligand binding assay; settings: 10 μM; 37 °C, 60 min
Adrenergic a2A = Adrenergic a2A (Homo sapiens, UniProt P08913); assay: Radioligand binding assay; settings: 10 μM; 25 °C, 60 min

Transporter, Serotonin (5-Hyd roxytryptamine) (SERT), sequence (P31645 whole entry): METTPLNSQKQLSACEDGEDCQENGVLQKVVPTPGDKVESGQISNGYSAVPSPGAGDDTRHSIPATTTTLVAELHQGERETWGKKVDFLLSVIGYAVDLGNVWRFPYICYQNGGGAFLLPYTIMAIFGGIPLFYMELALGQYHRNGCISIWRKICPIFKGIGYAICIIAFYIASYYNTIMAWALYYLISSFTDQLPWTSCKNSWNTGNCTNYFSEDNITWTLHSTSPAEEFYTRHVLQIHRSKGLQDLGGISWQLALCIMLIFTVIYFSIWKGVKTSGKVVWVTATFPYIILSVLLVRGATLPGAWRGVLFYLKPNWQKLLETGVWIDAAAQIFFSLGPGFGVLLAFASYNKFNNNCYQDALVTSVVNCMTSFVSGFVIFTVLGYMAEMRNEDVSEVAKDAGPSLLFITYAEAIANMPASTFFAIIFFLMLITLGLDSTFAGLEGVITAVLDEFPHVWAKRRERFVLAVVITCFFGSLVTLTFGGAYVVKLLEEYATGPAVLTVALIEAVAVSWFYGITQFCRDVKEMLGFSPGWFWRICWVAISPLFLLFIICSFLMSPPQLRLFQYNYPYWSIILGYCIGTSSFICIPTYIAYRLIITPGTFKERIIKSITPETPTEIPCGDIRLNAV

CCCCCCCCCCCC(=O)OC[C@@H](COP(=O)(O)OCCNC(=O)c1ccc(Cn2c(=O)[nH]c3c(N)nc(OCCOC)nc32)cc1)OC(=O)CCCCCCCCCCC [TMX-202]
Percent inhibition of specific radioligand binding [1]: 18%
Percent inhibition of specific radioligand binding (Dopamine D1): 15%
Percent inhibition of specific radioligand binding (Opiate K (OP2, KOP)): −9%
Percent inhibition of specific radioligand binding [2]: −3%
Percent inhibition of specific radioligand binding (Phorbol Ester): −8%
Percent inhibition of specific radioligand binding (Interleukin IL-1): 5%
Serum level of the compound one hour after the application [3]: 2.6 ± 0.6 pg/mL
Percent inhibition of specific radioligand binding [4]: 10%
Percent inhibition of specific radioligand binding (Glutamate, Kainate): 1%
Percent inhibition of specific radioligand binding (Endothelin ETA): 13%
Percent inhibition of enzyme activity (CYP450, 2C9): −4%
Percent inhibition of specific radioligand binding (Muscarinic M3): −6%
Percent inhibition of specific radioligand binding [5]: 6%
Percent inhibition of specific radioligand binding (GABAA, Muscimol, Central): −3%
Percent inhibition of enzyme activity (CYP450, 2D6): 0%
Percent inhibition of specific radioligand binding (Purinergic P2x): 9%
Percent inhibition of specific radioligand binding [6]: −7%
Percent inhibition of specific radioligand binding [7]: 15%
Percent inhibition of specific radioligand binding (Calcium Channel N-Type): −12%
Potency of hIL-12, hIL-6 and hIFN-α induction compared with IMQ (human whole blood): higher potency
Potency relative to IMQ in causing TLR7-dependent cytokine induction (TLR7): 100 times
IFN-γ secretion compared with vehicle treated controls (human PBMC; PBMC from five independent donors (figure 6C)): significantly higher than vehicle treated controls
Average IFN-γ levels in the TMX-202+CM (human PBMC; human PBMC 10^6/mL, 1 μM TMX-202, 24 hrs, three donors): 204 ± 113 pg/mL
Percent inhibition of specific radioligand binding (Neuropeptide Y Y2): 4%
Percent inhibition of specific radioligand binding (Potassium Channel hERG): −4%
Percent inhibition of specific radioligand binding (Opiate n (OP3, MOP)): 42%
Percent inhibition of specific radioligand binding (Prostanoid EP4): 7%
Percent inhibition of specific radioligand binding (Bradykinin B2): −2%
Percent inhibition of specific radioligand binding [8]: 2%
Percent inhibition of enzyme activity (CYP450, 2C19): 1%
Percent inhibition of specific radioligand binding (Adrenergic β1): 18%
Percent inhibition of specific radioligand binding (Sigma al): −5%
Percent inhibition of specific radioligand binding (Imidazoline I2, Central): −3%
Percent inhibition of specific radioligand binding [9]: 57%
Percent inhibition of specific radioligand binding (Adenosine A3): 6%
Percent inhibition of specific radioligand binding (Dopamine D4.2): 14%
Percent inhibition of specific radioligand binding (Cannabinoid CB1): −14%
Percent inhibition of specific radioligand binding (Adrenergic a1D): 6%
Potency of mIL-6 and mIL-1β induction compared with IMQ [10]: more potent cytokine inducer
Percent inhibition of specific radioligand binding [11]: 3%
Percent inhibition of specific radioligand binding (Adrenergic a2A): 3%
